Kd and KD data for four sequences are collected here from article PMC9006954, “Computer-Based Immunoinformatic Analysis to Predict Candidate T-Cell Epitopes for SARS-CoV-2 Vaccine Design” (Frontiers in Immunology, 2022).

For the assay, the target named is T1, HLA-A*11:01 protein (Homo sapiens, UniProt P04439, A114D/D185E/E176A/F33Y/L180Q/S129P/T187R).
T1 construct: biotin (biotinylated)
As to the kind of experiment: Bio-Layer Interferometry (BLI) affinity test, Octet R8. The following applies: Octet R8, SSA sensors, peptides 100-3.125 µM in PBST (PBS+0.02%Tween20+1% DMSO), balance, binding, dissociation 60 s each. For orientation: BLI is a label-free optical method that tracks binding on a fibre tip over time.

Where no end group is shown, it is not given here.

As for FSTFKCYGL, binding was put at a Kd of 5.95 µM.
The sequence GLSPTKLNDL came in with a Kd of 319 µM.
On the same count and under the same terms, next, KCYGLSPTK: 23 µM.
In the case of SQCVNFTTR, the KD result is given as “Non-binding”. Also, the KD entry (listed as 13[…]21) is reported as “not detected”.

As a reminder, the Kd is the equilibrium constant for the complex coming apart.
